For 22 compounds, T/C results are on record in PubChem BioAssay AID330 (DTP/NCI, 2004).

The structures appear in SMILES notation. “And” between values parts separate entries of the source, which are not always exact repeats. Equal values may be shown once. Toxic doses and inconclusive results are not listed.

In the experiment the test system is P388 leukemia ip, CD2F1 mice, survival T/C. Nature of the experiment: NCI In Vivo Anticancer Drug Screen. Data for tumor model P388 Leukemia (intraperitoneal) in CD2F1 (CDF1) mice. As to conditions: endpoint: median survival time, higher = longer survival. A digest of the protocol:
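Mice carrying the transplanted tumor received test compound or vehicle. Survival was recorded in each group, and the value is the treated-group measurement divided by that of the vehicle-treated control group.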

Where [1] appears, read: dose: 100.0 mg/kg/injection, schedule: Q01DX001 (ip), vehicle: Klucel (hydroxypropylcellulose) (HPC).
[2] abbreviates: dose: 200.0 mg/kg/injection, schedule: Q01DX001 (ip), vehicle: Klucel (hydroxypropylcellulose) (HPC).
[3] abbreviates: dose: 60.0 mg/kg/injection, schedule: Q01DX005 (ip), vehicle: saline with Tween-80.
Setting [4] is: dose: 120.0 mg/kg/injection, schedule: Q01DX005 (ip), vehicle: saline with Tween-80.
[5] abbreviates: dose: 240.0 mg/kg/injection, schedule: Q01DX005 (ip), vehicle: saline with Tween-80.
[6] abbreviates: dose: 50.0 mg/kg/injection, schedule: Q01DX009 (ip), vehicle: saline with Tween-80.
[7] abbreviates: dose: 100.0 mg/kg/injection, schedule: Q01DX009 (ip), vehicle: saline with Tween-80.
The mark [8] stands for this setting: dose: 200.0 mg/kg/injection, schedule: Q01DX009 (ip), vehicle: saline with Tween-80.

For `C1OC1CN1CCN(CC2CO2)CC1` (stereo unspecified), the T/C (dose: 4.0 mg/kg/injection, schedule: Q01DX009 (ip), vehicle: saline) is 124 % of control; the T/C (dose: 8.0 mg/kg/injection, schedule: Q01DX009 (ip), vehicle: saline) is 150 % of control; the T/C (dose: 16.0 mg/kg/injection, schedule: Q01DX009 (ip), vehicle: saline) is 196 % of control.

Turning to `O=C1NC(=O)N(c2ccc(Cl)c(Cl)c2)C1=O`, the T/C by setting is: (dose: 50.0 mg/kg/injection, schedule: Q01DX009 (ip), vehicle: Klucel (hydroxypropylcellulose) (HPC)) 94 % of control; (dose: 100.0 mg/kg/injection, schedule: Q01DX009 (ip), vehicle: Klucel (hydroxypropylcellulose) (HPC)) 93 % of control; (dose: 200.0 mg/kg/injection, schedule: Q01DX009 (ip), vehicle: Klucel (hydroxypropylcellulose) (HPC)) 94 % of control.

Turning to `O=C1C=CC(=O)C1=Cc1ccc([N+](=O)[O-])o1`, the T/C runs as follows: (dose: 0.78 mg/kg/injection, schedule: Q04DX002 (ip), vehicle: saline with Tween-80) 106 % of control; (dose: 1.56 mg/kg/injection, schedule: Q04DX002 (ip), vehicle: saline with Tween-80) 97 % of control; (dose: 3.12 mg/kg/injection, schedule: Q04DX002 (ip), vehicle: saline with Tween-80) 97 % of control.

On to `O=C(CCBr)N1CCN(C(=O)CCBr)CC1`, for which the T/C was 100 % of control (dose: 2.5 mg/kg/injection, schedule: Q01DX009 (ip), vehicle: saline); 104 % of control (dose: 5.0 mg/kg/injection, schedule: Q01DX009 (ip), vehicle: saline); 108 % of control (dose: 5.0 mg/kg/injection, schedule: Q01DX010 (ip), vehicle: Klucel (hydroxypropylcellulose) (HPC)); 112 % of control (dose: 10.0 mg/kg/injection, schedule: Q01DX009 (ip), vehicle: saline); 120 % of control (dose: 10.0 mg/kg/injection, schedule: Q01DX010 (ip), vehicle: Klucel (hydroxypropylcellulose) (HPC)); 112 % of control (dose: 20.0 mg/kg/injection, schedule: Q01DX009 (ip), vehicle: saline). Moreover, the T/C is 169 % of control (dose: 40.0 mg/kg/injection, schedule: Q01DX009 (ip), vehicle: saline); 171 % of control (dose: 40.0 mg/kg/injection, schedule: Q01DX010 (ip), vehicle: Klucel (hydroxypropylcellulose) (HPC)); 110 % of control (dose: 80.0 mg/kg/injection, schedule: Q01DX009 (ip), vehicle: saline); 91 % of control (dose: 80.0 mg/kg/injection, schedule: Q01DX010 (ip), vehicle: Klucel (hydroxypropylcellulose) (HPC)).

Consider `CC(Cl)CN1CCOC1=O` (stereo unspecified), for which the T/C reads like this: (dose: 12.5 mg/kg/injection, schedule: Q01DX001 (ip), vehicle: saline) 106 % of control; (dose: 25.0 mg/kg/injection, schedule: Q01DX001 (ip), vehicle: saline) 96 % of control; (dose: 50.0 mg/kg/injection, schedule: Q01DX001 (ip), vehicle: saline) 105 % of control; (dose: 100.0 mg/kg/injection, schedule: Q01DX001 (ip), vehicle: saline) 102 % of control.

With `O=S1(=O)Cc2ccccc21`, the T/C under setting [1] was 92 % of control and the T/C under setting [2] was 98 % of control.

Consider `CCCC(=O)NC1C(Nc2ccc(S(=O)(=O)Nc3nc(C)cc(C)n3)cc2)OC(CO)C(O)C1O` (stereo unspecified), for which the T/C is 97 % of control (dose: 50.0 mg/kg/injection, schedule: Q01DX005 (ip), vehicle: saline); 92 % of control (dose: 100.0 mg/kg/injection, schedule: Q01DX005 (ip), vehicle: saline); 99 % of control (dose: 200.0 mg/kg/injection, schedule: Q01DX005 (ip), vehicle: saline).

Regarding `COC(=O)c1c(C(N)=O)c(C)n(NC(=O)c2ccccc2)c1C`, the T/C is, setting by setting: under setting [3], 95 % of control; under setting [4], 93 % of control; under setting [5], 94 % of control.

With `C#CCSc1n[nH]c(-c2ccco2)n1`, the T/C runs as follows: under setting [3], 101 % of control; under setting [4], 105 % of control; under setting [5], 105 % of control.

Consider `COc1cc(OCc2ccccc2)c(O)cc1-c1coc2cc(OCc3ccccc3)ccc2c1=O`, for which the T/C is 96 % of control under setting [1]; 100 % of control under setting [2]; 94 % of control (dose: 400.0 mg/kg/injection, schedule: Q01DX001 (ip), vehicle: Klucel (hydroxypropylcellulose) (HPC)).

In the case of `O=S1(=O)CC(N2CCCCC2)C2=C(O1)c1ccccc1N(c1ccccc1)C2` (stereo unspecified), the T/C reads like this: under setting [6], 97 % of control; under setting [7], 96 % of control; under setting [8], 97 % of control.

Turning to `N=C(N)SCN1C(=O)c2ccccc2C1=O`, the T/C is, setting by setting: (dose: 6.25 mg/kg/injection, schedule: Q01DX009 (ip), vehicle: saline with Tween-80) 114 % of control; (dose: 12.5 mg/kg/injection, schedule: Q01DX009 (ip), vehicle: saline with Tween-80) 107 % of control; (dose: 25.0 mg/kg/injection, schedule: Q01DX009 (ip), vehicle: saline with Tween-80) 123 % of control; under setting [6], 122 % of control.

In the case of `CN(C)c1ccc(/C=N/NC(=O)c2ccccc2NC(=O)c2ccccc2Cl)cc1`, the T/C (dose: 7.5 mg/kg/injection, schedule: Q01DX005 (ip), vehicle: Klucel (hydroxypropylcellulose) (HPC)) is 86 % of control and the T/C (dose: 15.0 mg/kg/injection, schedule: Q01DX005 (ip), vehicle: Klucel (hydroxypropylcellulose) (HPC)) is 86 % of control.

`O=Cc1ccc(C(Cl)(Cl)Cl)nc1`: the T/C by setting is: under setting [6], 105 % of control; under setting [7], 110 % of control; under setting [8], 115 % of control.

Turning to `Cn1c(=O)c2nc3n(c2n(C)c1=O)CCC(C)(c1ccccc1)O3` (stereo unspecified), the T/C is 96 % of control under setting [3], 91 % of control under setting [4] and 91 % of control under setting [5].

Consider `Cn1c(=O)cc2n(C)c3ccccc3n2c1=O`, for which the T/C is 96 % of control under setting [3], 100 % of control under setting [4] and 97 % of control under setting [5].

Consider `Cc1nc2scc(-c3ccc(Cl)cc3)n2c(=O)c1CN1CCCCC1`, for which the T/C runs as follows: (dose: 50.0 mg/kg/injection, schedule: Q04DX002 (ip), vehicle: Klucel (hydroxypropylcellulose) (HPC)) 97 % of control; (dose: 100.0 mg/kg/injection, schedule: Q04DX002 (ip), vehicle: Klucel (hydroxypropylcellulose) (HPC)) 95 % of control; (dose: 200.0 mg/kg/injection, schedule: Q04DX002 (ip), vehicle: Klucel (hydroxypropylcellulose) (HPC)) 97 % of control.

In the case of `Cc1nc2ccc(N)cc2oc1=O`, the T/C runs as follows: (dose: 15.0 mg/kg/injection, schedule: Q01DX005 (ip), vehicle: saline with Tween-80) 100 % of control; (dose: 30.0 mg/kg/injection, schedule: Q01DX005 (ip), vehicle: saline with Tween-80) 101 % of control; under setting [3], 105 % of control and 98 % of control.

In the case of `CC1(C)CC(=O)c2c(ncc3cc4c(cc23)OCO4)C1`, the T/C (dose: 100.0 mg/kg/injection, schedule: Q04DX002 (ip), vehicle: saline with Tween-80) is 110 % of control and the T/C (dose: 200.0 mg/kg/injection, schedule: Q04DX002 (ip), vehicle: saline with Tween-80) is 118 % of control.

As for `CCN(CCO)CCNc1ccc(CO)c2sc3cc(Cl)ccc3c(=O)c12`, the T/C (dose: 88.0 mg/kg/injection, schedule: Q01DX009 (ip), vehicle: saline with Tween-80) is 105 % of control; the T/C (dose: 133.0 mg/kg/injection, schedule: Q01DX009 (ip), vehicle: saline with Tween-80) is 113 % of control; the T/C under setting [8] is 112 % of control; the T/C (dose: 300.0 mg/kg/injection, schedule: Q01DX009 (ip), vehicle: saline with Tween-80) was 102 % of control.

Consider `CNC(=O)OCc1c(COC(=O)NC)c(C)n(-c2ccc(F)cc2)c1C`, for which, for the setting “dose: 25.0 mg/kg/injection, schedule: Q01DX009 (ip), vehicle: saline”, the T/C is 155 % of control.

As for `NC(CCSSCCC(N)P(=O)(O)O)P(=O)(O)O` (stereo unspecified), the T/C is, setting by setting: (dose: 50.0 mg/kg/injection, schedule: Q01DX005 (ip), vehicle: saline with Tween-80) 95 % of control; (dose: 100.0 mg/kg/injection, schedule: Q01DX005 (ip), vehicle: saline with Tween-80) 92 % of control; (dose: 200.0 mg/kg/injection, schedule: Q01DX005 (ip), vehicle: saline with Tween-80) 99 % of control.
